Legend:
Test in all cases: Selective postemergence, track sprayer
Type in all cases: in vivo
Cheatgrass = test system: Cheatgrass
Experimental: (§1) Representative compositions of the present invention were evaluated for the postemergence control of species of plants listed in Table A. In these evaluations, pots of the plant species listed in Table A, grown to a height of about 10 cms, were used. Aqueous spray compositions, containing various amounts of 2-[4-(2-fluoro-4-trifluoromethylphenoxy)-phenoxy]propionic acid methy ester, i.e., 125 ppm, 62.5 ppm, 31.25 ppm, 15.6 ppm, 7.8 ppm and 3.9 ppm, respectively, were applied to separate pots. The spray compositions were made by mixing the active ingredient in acetone to 1/2 the final volume, i.e., twice the final concentration. An equal amount of water was added to the active ingredient/acetone mixture wherein the water contained 0.1 percent by weight of TWEEN® 200 surfactant. The application to the plants was made to the point of run-off and was carried out with conventional spraying equipment. Other pots were sprayed with similar compositions containing no toxicant to serve as controls. Thereafter, the pots were maintained under conditions conducive for plant growth. Two weeks after treatment, the pots were examined for plant growth and evaluated on a scale of 0 to 100 where 0 represents no effect and 100 represents complete kill. The results of the examination of the treated pots are set forth below in Table A.
(§2) To further define the selective postemergence herbicidal characteristics of compounds of the present invention, chemicals were applied to additional species of grasses as listed in Table F. Chemicals evaluated were 2-[4-(4-bromo-2-fluorophenoxy)phenoxy]propionic acid methyl ester and its R isomer. Treatment conditions were similar to those described in Example A except that chemicals were delivered through a track sprayer set to deliver the appropriate dosages in 280.6 L/hectare of water containing 0.1% Tween-20 surfactant.

Crabgrass = test system: Crabgrass
Experimental: as §1, §2

Johnsongrass = test system: Johnsongrass
Experimental: as §1, §2

Downey Brome = test system: Downey Brome
Experimental: as §1, §2

Canarygrass = test system: Canarygrass
Experimental: as §1, §2

Giant Foxtail = test system: Giant Foxtail
Experimental: as §1, §2

Wheat = test system: Wheat
Experimental: as §1, §2

Wild Oats = test system: Wild Oats
Experimental: as §1, §2

Barnyardgrass = test system: Barnyardgrass
Experimental: as §1, §2

Annual Rye = test system: Annual Rye
Experimental: as §1, §2

Wild Proso Millet = test system: Wild Proso Millet
Experimental: as §1, §2

Bermudagrass = test system: Bermudagrass
Experimental: as §1, §2

In the case of COC(=O)[C@@H](C)Oc1ccc(Oc2ccc(Br)cc2F)cc1 [4-Bromo-(R-Enantiomer), R enantiomer of 2-[4-(4-bromo-2-fluorophenoxy)phenoxy]propionic acid methyl ester], the “Percent Control” value (Cheatgrass; 0.00055 kgs/hectare) is reported as 0%, the “Percent Control” value (Cheatgrass; 0.0011 kgs/hectare) is reported as 0% and the “Percent Control” value (Cheatgrass; 0.0023 kgs/hectare) is reported as 0%. The “Percent Control” value (Cheatgrass; 0.0045 kgs/hectare) was 0%, the “Percent Control” value (Cheatgrass; 0.009 kgs/hectare) was 0% and the “Percent Control” value (Cheatgrass; 0.018 kgs/hectare) was 0%. For the same molecule, the “Percent Control” value (Cheatgrass; 0.035 kgs/hectare) was 0%, the “Percent Control” value (Cheatgrass; 0.07 kgs/hectare) was 0% and the “Percent Control” value (Cheatgrass; 0.14 kgs/hectare) was 0%. The “Percent Control” value (Cheatgrass; 0.28 kgs/hectare) was 0%, the “Percent Control” value (Crabgrass; 0.00055 kgs/hectare) was 0% and the “Percent Control” value (Crabgrass; 0.0011 kgs/hectare) was 0%. The “Percent Control” value (Crabgrass; 0.0023 kgs/hectare) was 0%, the “Percent Control” value (Crabgrass; 0.0045 kgs/hectare) was 50% and the “Percent Control” value (Crabgrass; 0.009 kgs/hectare) was 90%. The “Percent Control” value (Crabgrass; 0.018 kgs/hectare) was 90%, the “Percent Control” value (Crabgrass; 0.035 kgs/hectare) was 70% and the “Percent Control” value (Crabgrass; 0.07 kgs/hectare) was 100%. The “Percent Control” value (Crabgrass; 0.14 kgs/hectare) was 100%, the “Percent Control” value (Crabgrass; 0.28 kgs/hectare) was 100% and the “Percent Control” value (Johnsongrass; 0.00055 kgs/hectare) was 0%. For the same molecule, the “Percent Control” value (Johnsongrass; 0.0011 kgs/hectare) was 0%, the “Percent Control” value (Johnsongrass; 0.0023 kgs/hectare) was 0% and the “Percent Control” value (Johnsongrass; 0.0045 kgs/hectare) was 0%. For the same molecule, the “Percent Control” value (Johnsongrass; 0.009 kgs/hectare) was 0%, the “Percent Control” value (Johnsongrass; 0.018 kgs/hectare) was 0% and the “Percent Control” value (Johnsongrass; 0.035 kgs/hectare) was 0%. For the same molecule, the “Percent Control” value (Johnsongrass; 0.07 kgs/hectare) was 20%, the “Percent Control” value (Johnsongrass; 0.14 kgs/hectare) was 40% and the “Percent Control” value (Johnsongrass; 0.28 kgs/hectare) was 70%. For the same molecule, the “Percent Control” value (Downey Brome; 0.00055 kgs/hectare) was 0%, the “Percent Control” value (Downey Brome; 0.0011 kgs/hectare) was 0% and the “Percent Control” value (Downey Brome; 0.0023 kgs/hectare) was 0%. For the same molecule, the “Percent Control” value (Downey Brome; 0.0045 kgs/hectare) was 0%, the “Percent Control” value (Downey Brome; 0.009 kgs/hectare) was 0% and the “Percent Control” value (Downey Brome; 0.018 kgs/hectare) was 0%. The “Percent Control” value (Downey Brome; 0.035 kgs/hectare) was 0%, the “Percent Control” value (Downey Brome; 0.07 kgs/hectare) was 0% and the “Percent Control” value (Downey Brome; 0.14 kgs/hectare) was 0%. For the same molecule, the “Percent Control” value (Downey Brome; 0.28 kgs/hectare) was 0%, the “Percent Control” value (Canarygrass; 0.00055 kgs/hectare) was 0% and the “Percent Control” value (Canarygrass; 0.0011 kgs/hectare) was 0%. For the same molecule, the “Percent Control” value (Canarygrass; 0.0023 kgs/hectare) was 0%, the “Percent Control” value (Canarygrass; 0.0045 kgs/hectare) was 0% and the “Percent Control” value (Canarygrass; 0.009 kgs/hectare) was 0%. For the same molecule, the “Percent Control” value (Canarygrass; 0.018 kgs/hectare) was 0%, the “Percent Control” value (Canarygrass; 0.035 kgs/hectare) was 100% and the “Percent Control” value (Canarygrass; 0.07 kgs/hectare) was 100%. For the same molecule, the “Percent Control” value (Canarygrass; 0.14 kgs/hectare) was 100%, the “Percent Control” value (Canarygrass; 0.28 kgs/hectare) was 100% and the “Percent Control” value (Giant Foxtail; 0.00055 kgs/hectare) was 80%. For the same molecule, the “Percent Control” value (Giant Foxtail; 0.0011 kgs/hectare) was 100%, the “Percent Control” value (Giant Foxtail; 0.0023 kgs/hectare) was 100% and the “Percent Control” value (Giant Foxtail; 0.0045 kgs/hectare) was 100%. For the same molecule, the “Percent Control” value (Giant Foxtail; 0.009 kgs/hectare) was 100%, the “Percent Control” value (Giant Foxtail; 0.018 kgs/hectare) was 100% and the “Percent Control” value (Giant Foxtail; 0.035 kgs/hectare) was 100%. For the same molecule, the “Percent Control” value (Giant Foxtail; 0.07 kgs/hectare) was 100%, the “Percent Control” value (Giant Foxtail; 0.14 kgs/hectare) was 100% and the “Percent Control” value (Giant Foxtail; 0.28 kgs/hectare) was 100%. For the same molecule, the “Percent Control” value (Wheat; 0.00055 kgs/hectare) was 0%, the “Percent Control” value (Wheat; 0.0011 kgs/hectare) was 0% and the “Percent Control” value (Wheat; 0.0023 kgs/hectare) was 0%. For the same molecule, the “Percent Control” value (Wheat; 0.0045 kgs/hectare) was 0%, the “Percent Control” value (Wheat; 0.009 kgs/hectare) was 0% and the “Percent Control” value (Wheat; 0.018 kgs/hectare) was 0%. For the same molecule, the “Percent Control” value (Wheat; 0.035 kgs/hectare) was 0%, the “Percent Control” value (Wheat; 0.07 kgs/hectare) was 0% and the “Percent Control” value (Wheat; 0.14 kgs/hectare) was 0%. The “Percent Control” value (Wheat; 0.28 kgs/hectare) was 0%, the “Percent Control” value (Wild Oats; 0.00055 kgs/hectare) was 0% and the “Percent Control” value (Wild Oats; 0.0011 kgs/hectare) was 0%. For the same molecule, the “Percent Control” value (Wild Oats; 0.0023 kgs/hectare) was 0%, the “Percent Control” value (Wild Oats; 0.0045 kgs/hectare) was 0% and the “Percent Control” value (Wild Oats; 0.009 kgs/hectare) was 20%. The “Percent Control” value (Wild Oats; 0.018 kgs/hectare) was 20%, the “Percent Control” value (Wild Oats; 0.035 kgs/hectare) was 40% and the “Percent Control” value (Wild Oats; 0.07 kgs/hectare) was 70%. The “Percent Control” value (Wild Oats; 0.14 kgs/hectare) was 70%, the “Percent Control” value (Wild Oats; 0.28 kgs/hectare) was 95% and the “Percent Control” value (Barnyardgrass; 0.00055 kgs/hectare) was 90%. For the same molecule, the “Percent Control” value (Barnyardgrass; 0.0011 kgs/hectare) was 80%, the “Percent Control” value (Barnyardgrass; 0.0023 kgs/hectare) was 100% and the “Percent Control” value (Barnyardgrass; 0.0045 kgs/hectare) was 100%. The “Percent Control” value (Barnyardgrass; 0.009 kgs/hectare) was 100%, the “Percent Control” value (Barnyardgrass; 0.018 kgs/hectare) was 100% and the “Percent Control” value (Barnyardgrass; 0.035 kgs/hectare) was 100%. For the same molecule, the “Percent Control” value (Barnyardgrass; 0.07 kgs/hectare) was 100%, the “Percent Control” value (Barnyardgrass; 0.14 kgs/hectare) was 100% and the “Percent Control” value (Barnyardgrass; 0.28 kgs/hectare) was 100%. The “Percent Control” value (Annual Rye; 0.00055 kgs/hectare) was 0%, the “Percent Control” value (Annual Rye; 0.0011 kgs/hectare) was 0% and the “Percent Control” value (Annual Rye; 0.0023 kgs/hectare) was 0%. The “Percent Control” value (Annual Rye; 0.0045 kgs/hectare) was 0%, the “Percent Control” value (Annual Rye; 0.009 kgs/hectare) was 20% and the “Percent Control” value (Annual Rye; 0.018 kgs/hectare) was 30%. For the same molecule, the “Percent Control” value (Annual Rye; 0.035 kgs/hectare) was 60%, the “Percent Control” value (Annual Rye; 0.07 kgs/hectare) was 70% and the “Percent Control” value (Annual Rye; 0.14 kgs/hectare) was 90%. For the same molecule, the “Percent Control” value (Annual Rye; 0.28 kgs/hectare) was 90%, the “Percent Control” value (Wild Proso Millet; 0.00055 kgs/hectare) was 30% and the “Percent Control” value (Wild Proso Millet; 0.0011 kgs/hectare) was 30%. For the same molecule, the “Percent Control” value (Wild Proso Millet; 0.0023 kgs/hectare) was 80%, the “Percent Control” value (Wild Proso Millet; 0.0045 kgs/hectare) was 100% and the “Percent Control” value (Wild Proso Millet; 0.009 kgs/hectare) was 95%. The “Percent Control” value (Wild Proso Millet; 0.018 kgs/hectare) was 100%, the “Percent Control” value (Wild Proso Millet; 0.035 kgs/hectare) was 100% and the “Percent Control” value (Wild Proso Millet; 0.07 kgs/hectare) was 100%. For the same molecule, the “Percent Control” value (Wild Proso Millet; 0.14 kgs/hectare) was 100%, the “Percent Control” value (Wild Proso Millet; 0.28 kgs/hectare) was 100% and the “Percent Control” value (Bermudagrass; 0.00055 kgs/hectare) was 0%. The “Percent Control” value (Bermudagrass; 0.0011 kgs/hectare) was 0%, the “Percent Control” value (Bermudagrass; 0.0023 kgs/hectare) was 0% and the “Percent Control” value (Bermudagrass; 0.0045 kgs/hectare) was 20%. The “Percent Control” value (Bermudagrass; 0.009 kgs/hectare) was 30%, the “Percent Control” value (Bermudagrass; 0.018 kgs/hectare) was 60% and the “Percent Control” value (Bermudagrass; 0.035 kgs/hectare) was 90%. The “Percent Control” value (Bermudagrass; 0.07 kgs/hectare) was 90%, the “Percent Control” value (Bermudagrass; 0.14 kgs/hectare) was 90% and the “Percent Control” value (Bermudagrass; 0.28 kgs/hectare) was 95%.

— US4725683A, “Fluorophenoxyphenoxypropionates and derivatives thereof” (The Dow Chemical Company, priority 1985, dated 1988)
